This is an account of results in article PMC9618137, “Bacterial catabolism of acetovanillone, a lignin-derived compound” (Proceedings of the National Academy of Sciences of the …, 2022).

In the experiment the test system is T1, HpeCBA.
T1 construct: gene hpeB; hpeCBA co-expressed in Rhodococcus jostii RHA1; untagged complex, ammonium sulfate and anion exchange; with Phosphophenylethanone carboxylase, biotin carboxylase; Phosphophenylethanone carboxylase, biotin carboxyl carrier protein
The experiment in a line: coupled spectrophotometric assay (pyruvate kinase / lactate dehydrogenase, NADH oxidation). Type of experiment: biochemical, Rhodococcus rhodochrous. The conditions noted are these: 20 mM MOPS (I = 0.1 M), pH 7.5, 25 °C; ATP, Mg2+, HCO3-. The source says: coupled spectrophotometric assay (pyruvate kinase / lactate dehydrogenase, NADH oxidation) on HpeCBA

With `CC(=O)c1ccc(OP(=O)(O)O)cc1` [PAP], the Km amounted to 69 µM.
The same measure for `COc1cc(C(C)=O)ccc1OP(=O)(O)O` [PAV]: 560 µM.
